Data: article PMC4727767, “Synthesis and In Vitro Biological Evaluation of 1,3,4-Oxadiazol-2(3H)-one and Tetrahydropyridazine-3,6-dione Derivatives of Fatty Acids” (Scientia Pharmaceutica, 2015)

Tests used:
Format in all cases: cell-based
[1] = test system: PBMC (peripheral blood mononuclear cells); assay: MTT cytotoxicity assay, normal cells PBMC; settings: 48 hr treatment
From the text: (§1) The newly synthesized compounds, 3a–d and 6a–c, combined the benefits of the aforementioned 1,3,4-oxadiazol-2(3H)-one and tetrahydropyridazine-3,6-dione moieties with their fatty acid substituent to give a new scaffold. To check the anticancer potency, the compounds 3a–d and 6a–c were screened in vitro for cytotoxicity against MDA-MB-231 (Breast), KCL-22 (Lymphoblastoid), and HeLa (cervical) cell lines, while PBMC (peripheral blood mononuclear cells) were used as a normal cell. Doxorubicin and 5-Fluorouracil were used as standard cytotoxic drugs. A period of 48 hours of drug exposure was chosen to test cytotoxicity. The MTT cell viability assay based on the conversion of the soluble yellowish MTT to the insoluble purple formazan crystal by active mitochondrial […] of living cells was used for the measurement of cell proliferation. The inhibitory concentration (IC50) of 3a–d and 6a–c compounds were screened against the MDA-MB-231, KCL-22, and HeLa cell lines as given in Table 1. The effect of standard drugs (Doxorubicin and 5-Fluorouracil) on the MDA-MB-231, KCL-22, and HeLa cell lines, and PBMC are represented in Fig. 4.
Fresh blood ([…]) was provided by the Blood Bank JNMC AMU, Aligarh. After dilution with the same volume of PBS, the diluted blood sample was layered on the Ficoll-Histopaque (Sigma Aldrich, USA). The mixture was centrifuged at 400×g for 30 min at 20–22°C followed by separation of the lymphocyte layer. Then the lymphocyte layer was washed and pelleted down with three volumes of PBS twice and resuspended with RPMI-1640 media with antibiotic and antimycotic solution 10%, v/v fetal calf serum (FCS).
(§2) The cells were plated at a density of (5×10^4 / well) in 96-well plates and cultured for 24 hours at 37°C. The cytotoxicity of compounds was determined by the MTT assay which involves the percentage viability of a cell in response to variable doses of compounds. After incubation for 48 hours, cell proliferation was measured by adding 20 μL of MTT dye (5 mg/mL in phosphate-buffered saline) per well. The plates were incubated for 4 hours more at 37°C in a humidified chamber containing 5% CO2. Active mitochondrial dehydrogenases of living cells reduced the yellow tetrazolium salt (dye) to an insoluble purple formazan crystal. Formazan crystals formed due to the reduction of tetrazoline dye by viable cells in each well which were dissolved in 150 μL dimethyl sulfoxide, and absorbance was read at 570 nm using a plate reader (Bio-Rad). The percentage of inhibition of cell viability was determined with reference to the untreated control. To determine the IC50 value, a linear regression analysis method was used.

[2] = test system: MDA-MB-231 (Breast) cell line; assay: MTT cytotoxicity assay, MDA-MB-231; settings: Homo sapiens, growth inhibition by 50% after 48 hr treatment
From the text: as §1
(§3) The MDA-MB-231, KCL-22, and HeLa cell lines were maintained in RPMI 1640 (Sigma Aldrich, USA) culture medium supplemented with 10% heat-inactivated fetal calf serum (Sigma Aldrich, USA), and antibiotic antimycotic solution (Sigma Aldrich, USA).
as §2

[3] = test system: HeLa (cervical) cell line; assay: MTT cytotoxicity assay, HeLa; settings: Homo sapiens, growth inhibition by 50% after 48 hr treatment
From the text: as §1, §3, §2

[4] = test system: KCL-22 (Lymphoblastoid) cell line; assay: MTT cytotoxicity assay, KCL-22; settings: Homo sapiens, growth inhibition by 50% after 48 hr treatment
From the text: as §1, §3, §2

SMILES	IC50 [1] [µM]	IC50 [2] [µM]	IC50 [3] [µM]	IC50 [4] [µM]
C=CCCCCCCCCc1n[nH]c(=O)o1 [3a, 5-(Dec-9-en-1-yl)-1,3,4-oxadiazol-2(3H)-one]	39.7 ± 1.4	12.3 ± 1.6	17.1 ± 2.1	15.5 ± 1.8
CCCCCCCC/C=C\CCCCCCCc1n[nH]c(=O)o1 [3b, 5-[(8Z)-Heptadec-8-en-1-yl]-1,3,4-oxadiazol-2(3H)-one]	> 50	9.3 ± 1.3	12.3 ± 2.4	13.6 ± 1.3
CCCCCC[C@@H](O)C/C=C\CCCCCCCc1n[nH]c(=O)o1 [3c, 5-[(8Z,11R)-11-Hydroxyheptadec-8-en-1-yl]-1,3,4-oxadiazol-2(3H)-one]	46.3 ± 1.3	6.3 ± 1.1	9.6 ± 1.2	8.3 ± 1.2
CCCCCCCCCCCCCCCCCc1n[nH]c(=O)o1 [3d, 5-Heptadecyl-1,3,4-oxadiazol-2(3H)-one]	41.4 ± 1.4	15.4 ± 1.8	26.2 ± 1.5	11.8 ± 1.6
O=c1[nH]cc(F)c(=O)[nH]1 [5-Fluorouracil, reference compound]	11.1 ± 2.3	2.42 ± 0.09	2.18 ± 0.8	2.52 ± 1
C=CCCCCCCCCC(=O)N1NC(=O)CCC1=O [6a, 1-(Undec-10-enoyl)tetrahydropyridazine-3,6-dione]	44.8 ± 1.3	18.9 ± 2.2	19.3 ± 1.4	16.4 ± 2.1
CCCCCCCC/C=C\CCCCCCCC(=O)N1NC(=O)CCC1=O [6b, 1-[(9Z)-Octadec-9-enoyl]tetrahydropyridazine-3,6-dione]	43.2 ± 1.5	11.1 ± 1.8	13.4 ± 2.4	8.1 ± 1.4
CCCCCCCCCCCCCCCC(=O)N1NC(=O)CCC1=O [6c, 1-Hexadecanoyltetrahydropyridazine-3,6-dione]	43.6 ± 1.4	25.7 ± 1.4	21.2 ± 1.6	17.6 ± 2.2
COc1cccc2c1C(=O)c1c(O)c3c(c(O)c1C2=O)C[C@@](O)(C(=O)CO)C[C@@H]3O[C@H]1C[C@H](N)[C@H](O)[C@H](C)O1 [Doxorubicin, reference compound]	9.39 ± 1.9	1.6 ± 0.09	1.9 ± 0.09	1.1 ± 0.08
